molecular target: T1, PDE5A1 (human PDE5 from platelets) (Homo sapiens, UniProt O76074); assay: Inhibition of type 5 phosphodiesterase (PDE5) activity, modified SPA test; type: biochemical; conditions: PDE5-containing human platelet lysate, 0.5 μM cGMP, value classes, read-out: PDE5A1 inhibitory values [measured as −logIC50 (mol/l)] (converted)
T1 construct: from tissue; host or cells: platelets from fresh blood of human donors (10,000 g supernatant of sonified platelets)
Procedure, shortened: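 Enzyme source: human platelet lysate (10,000 g supernatant), with 1 μM motapizone and 10 nM PDE2 inhibitor present. SPA format in 20 mM Tris pH 7.4, 5 mM Mg2+, 0.5 μM cGMP with [3H]cGMP tracer; 5 min preincubation at 37 °C, 15 min reaction, stopped with IBMX-containing beads. IC50 by non-linear regression.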

Row | IC50 [nM] | Compound
1 | < 1 | CCC(=O)N[C@H]1CC[C@H](NC(=O)c2c(C)[nH]c3c(-c4cc(OC)ccc4OCC4CC4)ccnc23)CC1 [Example E44, 7-[2-(Cyclopropylmethoxy)-5-methoxyphenyl]-2-methyl-N-[trans-4-(propanoylamino)cyclohexyl]-1H-pyrrolo[3,2-b]pyridine-3-carboxamide]
2 | < 1 | COCC(=O)N[C@H]1CC[C@H](NC(=O)c2c(C)[nH]c3c(-c4cc(OC)ccc4OCC4CC4)ccnc23)CC1 [Example E45, 7-[2-(Cyclopropylmethoxy)-5-methoxyphenyl]-N-{trans-4-[(methoxyacetyl)amino]cyclohexyl}-2-methyl-1H-pyrrolo[3,2-b]pyridine-3-carboxamide]
3 | < 1 | COc1ccc(OCC2CC2)c(-c2ccnc3c(C(=O)N[C@H]4CC[C@@H](NC(C)=O)CC4)c(C)[nH]c23)c1 [Example E46, N-[cis-4-(Acetylamino)cyclohexyl]-7-[2-(cyclopropylmethoxy)-5-methoxyphenyl]-2-methyl-1H-pyrrolo[3,2-b]pyridine-3-carboxamide]
4 | 1 to 10 | CCC(=O)N[C@H]1CC[C@@H](NC(=O)c2c(C)[nH]c3c(-c4cc(OC)ccc4OCC4CC4)ccnc23)CC1 [Example E47, 7-[2-(Cyclopropylmethoxy)-5-methoxyphenyl]-2-methyl-N-[cis-4-(propanoylamino)cyclohexyl]-1H-pyrrolo[3,2-b]pyridine-3-carboxamide]
5 | 1 to 10 | COCC(=O)N[C@H]1CC[C@@H](NC(=O)c2c(C)[nH]c3c(-c4cc(OC)ccc4OCC4CC4)ccnc23)CC1 [Example E48, 7-[2-(Cyclopropylmethoxy)-5-methoxyphenyl]-N-{cis-4-[(methoxyacetyl)amino]cyclohexyl}-2-methyl-1H-pyrrolo[3,2-b]pyridine-3-carboxamide]
6 | 1 to 10 | CC(=O)N1CCC(NC(=O)c2c(C)[nH]c3c(-c4cc(C)ccc4OCC4CC4)ccnc23)CC1 [Example E52, N-(1-Acetylpiperidin-4-yl)-7-[2-(cyclopropylmethoxy)-5-methylphenyl]-2-methyl-1H-pyrrolo[3,2-b]pyridine-3-carboxamide]
7 | 1 to 10 | CCC(=O)N1CCC(NC(=O)c2c(C)[nH]c3c(-c4cc(C)ccc4OCC4CC4)ccnc23)CC1 [Example E53, 7-[2-(Cyclopropylmethoxy)-5-methylphenyl]-2-methyl-N-(1-propanoylpiperidin-4-yl)-1H-pyrrolo[3,2-b]pyridine-3-carboxamide]
8 | 1 to 10 | COCC(=O)N1CCC(NC(=O)c2c(C)[nH]c3c(-c4cc(C)ccc4OCC4CC4)ccnc23)CC1 [Example E54, 7-[2-(Cyclopropylmethoxy)-5-methylphenyl]-N-[1-(methoxyacetyl)piperidin-4-yl]-2-methyl-1H-pyrrolo[3,2-b]pyridine-3-carboxamide]
9 | 1 to 10 | CC(=O)N[C@H]1CC[C@H](NC(=O)c2c(C)[nH]c3c(-c4cc(C)ccc4OCC4CC4)ccnc23)CC1 [Example E55, N-[trans-4-(Acetylamino)cyclohexyl]-7-[2-(cyclopropylmethoxy)-5-methylphenyl]-2-methyl-1H-pyrrolo[3,2-b]pyridine-3-carboxamide]
10 | 1 to 10 | CCC(=O)N[C@H]1CC[C@H](NC(=O)c2c(C)[nH]c3c(-c4cc(C)ccc4OCC4CC4)ccnc23)CC1 [Example E56, 7-[2-(Cyclopropylmethoxy)-5-methylphenyl]-2-methyl-N-[trans-4-(propanoylamino)cyclohexyl]-1H-pyrrolo[3,2-b]pyridine-3-carboxamide]
11 | 1 to 10 | COCC(=O)N[C@H]1CC[C@H](NC(=O)c2c(C)[nH]c3c(-c4cc(C)ccc4OCC4CC4)ccnc23)CC1 [Example E57, 7-[2-(Cyclopropylmethoxy)-5-methylphenyl]-N-{trans-4-[(methoxyacetyl)amino]cyclohexyl}-2-methyl-1H-pyrrolo[3,2-b]pyridine-3-carboxamide]
12 | 1 to 10 | CC(=O)N[C@H]1CC[C@@H](NC(=O)c2c(C)[nH]c3c(-c4cc(C)ccc4OCC4CC4)ccnc23)CC1 [Example E58, N-[cis-4-(Acetylamino)cyclohexyl]-7-[2-(cyclopropylmethoxy)-5-methylphenyl]-2-methyl-1H-pyrrolo[3,2-b]pyridine-3-carboxamide]
13 | 1 to 10 | CCC(=O)N[C@H]1CC[C@@H](NC(=O)c2c(C)[nH]c3c(-c4cc(C)ccc4OCC4CC4)ccnc23)CC1 [Example E59, 7-[2-(Cyclopropylmethoxy)-5-methylphenyl]-2-methyl-N-[cis-4-(propanoylamino)cyclohexyl]-1H-pyrrolo[3,2-b]pyridine-3-carboxamide]
14 | 1 to 10 | COCC(=O)N[C@H]1CC[C@@H](NC(=O)c2c(C)[nH]c3c(-c4cc(C)ccc4OCC4CC4)ccnc23)CC1 [Example E60, 7-[2-(Cyclopropylmethoxy)-5-methylphenyl]-N-{cis-4-[(methoxyacetyl)amino]cyclohexyl}-2-methyl-1H-pyrrolo[3,2-b]pyridine-3-carboxamide]
15 | < 1 | COc1cc(-c2ccnc3c(C(=O)NC4CCN(C(C)=O)CC4)c(C)[nH]c23)c(OCC2CC2)cc1F [Example E61, N-(1-Acetylpiperidin-4-yl)-7-[2-(cyclopropylmethoxy)-4-fluoro-5-methoxyphenyl]-2-methyl-1H-pyrrolo[3,2-b]pyridine-3-carboxamide]
16 | < 1 | CCC(=O)N1CCC(NC(=O)c2c(C)[nH]c3c(-c4cc(OC)c(F)cc4OCC4CC4)ccnc23)CC1 [Example E62, 7-[2-(Cyclopropylmethoxy)-4-fluoro-5-methoxyphenyl]-2-methyl-N-(1-propanoylpiperidin-4-yl)-1H-pyrrolo[3,2-b]pyridine-3-carboxamide]
17 | < 1 | COCC(=O)N1CCC(NC(=O)c2c(C)[nH]c3c(-c4cc(OC)c(F)cc4OCC4CC4)ccnc23)CC1 [Example E63, 7-[2-(Cyclopropylmethoxy)-4-fluoro-5-methoxyphenyl]-N-[1-(methoxyacetyl)piperidin-4-yl]-2-methyl-1H-pyrrolo[3,2-b]pyridine-3-carboxamide]
18 | < 1 | COc1cc(-c2ccnc3c(C(=O)N[C@H]4CC[C@H](NC(C)=O)CC4)c(C)[nH]c23)c(OCC2CC2)cc1F [Example E64, N-[trans-4-(Acetylamino)cyclohexyl]-7-[2-(cyclopropylmethoxy)-4-fluoro-5-methoxyphenyl]-2-methyl-1H-pyrrolo[3,2-b]pyridine-3-carboxamide]
19 | < 1 | CCC(=O)N[C@H]1CC[C@H](NC(=O)c2c(C)[nH]c3c(-c4cc(OC)c(F)cc4OCC4CC4)ccnc23)CC1 [Example E65, 7-[2-(Cyclopropylmethoxy)-4-fluoro-5-methoxyphenyl]-2-methyl-N-[trans-4-(propanoylamino)cyclohexyl]-1H-pyrrolo[3,2-b]pyridine-3-carboxamide]
20 | < 1 | COCC(=O)N[C@H]1CC[C@H](NC(=O)c2c(C)[nH]c3c(-c4cc(OC)c(F)cc4OCC4CC4)ccnc23)CC1 [Example E66, 7-[2-(Cyclopropylmethoxy)-4-fluoro-5-methoxyphenyl]-N-{trans-4-[(methoxyacetyl)amino]cyclohexyl}-2-methyl-1H-pyrrolo[3,2-b]pyridine-3-carboxamide]
21 | < 1 | COc1cc(-c2ccnc3c(C(=O)N[C@H]4CC[C@@H](NC(C)=O)CC4)c(C)[nH]c23)c(OCC2CC2)cc1F [Example E67, N-[cis-4-(Acetylamino)cyclohexyl]-7-[2-(cyclopropylmethoxy)-4-fluoro-5-methoxyphenyl]-2-methyl-1H-pyrrolo[3,2-b]pyridine-3-carboxamide]

— US8816085B2 (Takeda GmbH, priority 2009, dated 2014)
